Measurements as given in US4137241A, “Deoxy-(0-8)-epi-17-salinomycin (1)” (priority 1977, dated 1979).
≈ marks a conversion by molar mass, not a printed value.

Experiments:
DOCA Na rat = assay: Antihypertensive activity in the DOCA Na rat, five-day oral dosing, systolic blood pressure; assay type: in vivo
Procedure: (§1) A test was conducted for antihypertensive activity in the DOCA Na rat. DOCA rats weighing 170 to 210 grams are used in the test. DOCA Na Hypertension is induced by unilateral nephrectomy followed by subcutaneous implantation of a 25 mg. desoxycorticosterone (DOCA) pellet. Animals are placed in individual cages receiving 0.9% sodium chloride solution to drink and rat chow diet ad libitum. Two weeks are allowed to elapse from the time of surgery for development of hypertension, i.e., systolic blood pressure of at least 150 mmHg.
(§2) Systolic blood pressure and heart rate are measured indirectly from the tail pressure pulse of unanesthetized rats, using a pneumatic pulse transducer. Control readings are taken prior to drug and post drug readings are taken at 1, 3, 6 and 24 hours.
(§3) The experimental results are represented as absolute values. Drug-related alterations in systolic blood pressure are expressed as percentage change by comparing control absolute values with post drug absolute values. Compounds are considered active when about a 15% or greater reduction in blood pressure is obtained. However, the reduction in blood pressure must show mathematical significance ([…]).
A derivative of the polyether ionophore, lasalocid, i.e., the bromo derivative of lasalocid, was tested in the above screen. The compound was orally administered for a five-day period by intubation and thereafter dosing was discontinued but blood pressure monitoring was continued. The following table illustrates the results obtained utilizing bromolasalocid as the test drug.

Actinomyces cellulosae = assay: Antimicrobial spectrum, agar diffusion technique; assay type: cell-based; conditions: Streptomyces cellulosae
From the text: (§4) M.I.C. Values in mcg/ml utilizing the
(§5) Test Organism agar diffusion technique

Bacillus megaterium = assay: Antimicrobial spectrum, agar diffusion technique; assay type: cell-based; conditions: Priestia megaterium
From the text: as §4, §5

Bacillus sp. E = assay: Antimicrobial spectrum, agar diffusion technique; assay type: cell-based
From the text: as §4, §5

Bacillus sp. TA = assay: Antimicrobial spectrum, agar diffusion technique; assay type: cell-based
From the text: as §4, §5

Bacillus subtilis = assay: Antimicrobial spectrum, agar diffusion technique; assay type: cell-based
From the text: as §4, §5

Candida albicans = assay: Antimicrobial spectrum, agar diffusion technique; assay type: cell-based
From the text: as §4, §5

Mycobacterium phlei = assay: Antimicrobial spectrum, agar diffusion technique; assay type: cell-based; conditions: Mycolicibacterium phlei
From the text: as §4, §5

Paecilomyces varioti = assay: Antimicrobial spectrum, agar diffusion technique; assay type: cell-based
From the text: as §4, §5

Sarcina lutea = assay: Antimicrobial spectrum, agar diffusion technique; assay type: cell-based; conditions: Micrococcus luteus
From the text: as §4, §5

Staphylococcus aureus = assay: Antimicrobial spectrum, agar diffusion technique; assay type: cell-based
From the text: as §4, §5

DOCA-Na. rat = assay: Subacute antihypertensive activity in the DOCA-Na rat versus bromolasalocid (AHR, onset, duration); assay type: in vivo
Procedure: as §1, §2
as §3, with “Compounds are considered active when about a 15% or greater reduction in blood pressure is obtained.” left out
Using bromolasalocid as a standard for comparison, a number of the novel episalinomycin of the present invention was tested for antihypertensive activity. The tests were conducted utilizing single oral dosages in the DOCA-Na. rat over a five-day period with dosing discontinued thereafter. Blood pressure monitoring was carried out for the five-day period and daily after cessation of dosing until blood pressure returned to predrug levels. […] The antihypertensive activity expressed as AHR (Subacute antihypertensive ratio) was calculated using bromolasalocid as the standard reference (Table III).

[1] = Oral (per os) toxicity (LD50); conditions: in vivo
[2] = daily oral dose 1/100 of LD50 up to 10 mg/kg/day, five days

CC[C@@H](C(=O)[C@@H](C)[C@@H](O)[C@H](C)CCc1c(Br)cc(C)c(O)c1C(=O)O)[C@H]1O[C@](CC)([C@H]2CC[C@](O)(CC)[C@H](C)O2)C[C@@H]1C [Bromolasalocid]
Average Systolic Blood Pressure Per Group (DOCA Na rat; 5 mg/kg per day oral for 5 days, Day 1 pm, pre-drug control (Day 1 am) 209): 193 mmHg | Average Systolic Blood Pressure Per Group (DOCA Na rat; 5 mg/kg per day oral for 5 days, Day 2 am, pre-drug control 209): 206 mmHg | Average Systolic Blood Pressure Per Group (DOCA Na rat; 5 mg/kg per day oral for 5 days, Day 2 pm, pre-drug control 209): 194 mmHg | Average Systolic Blood Pressure Per Group (DOCA Na rat; 5 mg/kg per day oral for 5 days, Day 3 am, pre-drug control 209): 204 mmHg | Average Systolic Blood Pressure Per Group (DOCA Na rat; 5 mg/kg per day oral for 5 days, Day 3 pm, pre-drug control 209): 191 mmHg | Average Systolic Blood Pressure Per Group (DOCA Na rat; 5 mg/kg per day oral for 5 days, Day 4 am, pre-drug control 209): 206 mmHg | Average Systolic Blood Pressure Per Group (DOCA Na rat; 5 mg/kg per day oral for 5 days, Day 4 pm, pre-drug control 209): 201 mmHg | Average Systolic Blood Pressure Per Group (DOCA Na rat; 5 mg/kg per day oral for 5 days, Day 5 am, pre-drug control 209): 197 mmHg | Average Systolic Blood Pressure Per Group (DOCA Na rat; 5 mg/kg per day oral for 5 days, Day 5 pm, pre-drug control 209): 196 mmHg | Average Systolic Blood Pressure Per Group (DOCA Na rat; 10 mg/kg per day oral for 5 days, Day 1 pm, p < .05, pre-drug control (Day 1 am) 217): 192 mmHg | Average Systolic Blood Pressure Per Group (DOCA Na rat; 10 mg/kg per day oral for 5 days, Day 2 am, p < .05, pre-drug control 217): 181 mmHg | Average Systolic Blood Pressure Per Group (DOCA Na rat; 10 mg/kg per day oral for 5 days, Day 2 pm, p < .05, pre-drug control 217): 166 mmHg | Average Systolic Blood Pressure Per Group (DOCA Na rat; 10 mg/kg per day oral for 5 days, Day 3 am, p < .05, pre-drug control 217): 171 mmHg | Average Systolic Blood Pressure Per Group (DOCA Na rat; 10 mg/kg per day oral for 5 days, Day 3 pm, p < .05, pre-drug control 217): 163 mmHg | Average Systolic Blood Pressure Per Group (DOCA Na rat; 10 mg/kg per day oral for 5 days, Day 4 am, p < .05, pre-drug control 217): 173 mmHg | Average Systolic Blood Pressure Per Group (DOCA Na rat; 10 mg/kg per day oral for 5 days, Day 4 pm, p < .05, pre-drug control 217): 157 mmHg | Average Systolic Blood Pressure Per Group (DOCA Na rat; 10 mg/kg per day oral for 5 days, Day 5 am, p < .05, pre-drug control 217): 176 mmHg | Average Systolic Blood Pressure Per Group (DOCA Na rat; 10 mg/kg per day oral for 5 days, Day 5 pm, p < .05, pre-drug control 217): 166 mmHg | Period blood pressure remained below control after drug dosing (DOCA Na rat; after dosing for the first five consecutive days): 10 days

CCC(C(=O)O)C1CCC(C)C(C(C)C(O)C(C)C(=O)C(CC)C2OC3(C=CCC4(CCC(C)(C5CCC(O)(CC)C(C)O5)O4)O3)C(C)CC2C)O1 (stereo not drawn) [Deoxy-(0-8)-epi-17-salinomycin, 6-[5-[2'-(5"-Ethyltetrahydro-5"-hydroxy-6"-methyl-(2"H)-pyran-2"-yl]-2' ,12' ,14'-trimethyl-1',10' ,15'-trioxadispiro[4.3.5.1]pentadec-7'-en-11'-yl]-5-ethyl-1,3-dimethyl-2-hydroxy-4-oxopentyl]-alpha-ethyl-tetrahydro-5-methyl-(2H)-pyran-2-acetic acid]
MIC (Actinomyces cellulosae): 250 µg/mL (≈ 340 µM) | MIC (Bacillus megaterium): 6.25 µg/mL (≈ 8.5 µM) | MIC (Bacillus sp. E): 6.25 µg/mL (≈ 8.5 µM) | MIC (Bacillus sp. TA): 6.25 µg/mL (≈ 8.5 µM) | MIC (Bacillus subtilis): 6.25 µg/mL (≈ 8.5 µM) | MIC (Candida albicans): 2000 µg/mL (≈ 2720 µM) | MIC (Mycobacterium phlei): 500 µg/mL (≈ 680 µM) | MIC (Paecilomyces varioti): 15.7 µg/mL (≈ 21.4 µM) | MIC (Sarcina lutea): 25 µg/mL (≈ 34 µM) | MIC (Staphylococcus aureus): 25 µg/mL (≈ 34 µM) | antihypertensive activity (in words) (DOCA-Na. rat; DOCA-Na rat, oral, five-day period): exhibited antihypertensive activity | Duration of Effect (DOCA-Na. rat; [2]): 4 days | Onset to Max. Response (DOCA-Na. rat; [2]): 3 days | LD50 [1]: > 1000 mg/kg
